Results taken from patent US20080221086A1, “Novel Inhibitors of Glutaminyl Cyclase” (PROBIODRUG AG, priority 2006, published 2008).
Where two headings read alike, the source gives them in different places.

Target: hQC (Homo sapiens, UniProt Q16769)
Assay: Fluorometric assay of glutaminyl cyclase (QC) inhibition, H-Gln-βNA or H-Gln-AMC substrate
Format: biochemical
In short: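 Ki values were obtained by fitting progress curves to a competitive-inhibition equation, and the rapid screen used 4 mM inhibitor with substrate at 1 KM. Both readouts coupled pyroglutamyl aminopeptidase at pH 8.0 and 30° C: H-Gln-βNA at 0.2 mM (ex/em 320/410 nm) or H-Gln-AMC (380/460 nm).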

[1] = compound from preparative synthesis, purified by chromatography, fluorescent assay, read-out: IC50 hQC

Sequence of hQC (Q16769 29-361): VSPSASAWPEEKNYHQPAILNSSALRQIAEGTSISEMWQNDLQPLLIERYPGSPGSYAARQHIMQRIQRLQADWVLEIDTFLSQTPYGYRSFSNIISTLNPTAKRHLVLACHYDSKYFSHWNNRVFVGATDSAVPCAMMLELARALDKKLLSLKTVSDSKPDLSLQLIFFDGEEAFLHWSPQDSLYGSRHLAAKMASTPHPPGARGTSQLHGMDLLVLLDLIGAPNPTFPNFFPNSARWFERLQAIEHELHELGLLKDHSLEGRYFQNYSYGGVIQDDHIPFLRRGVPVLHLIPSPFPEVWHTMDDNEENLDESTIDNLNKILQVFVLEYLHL

Q: For `O=C1N/C(=N\C2CCCCCC2)C(C2CCOC2)N1c1ccc2[nH]cnc2c1` (stereo not shown) [Compound 205, 1-(1H-Benzoimidazol-5-yl)-4-cycloheptylimino-5-(tetrahydro-furan-3-yl)-imidazolidin-2-one], which IC50 (read-out: IC50) is on record?
A: 9.4 µM

Q: For `COC(=O)C(C)/N=C1\NC(=O)N(c2ccc3[nH]cnc3c2)C1C1CCC(C)=CC1C` (stereo not shown) [Compound 206, Methyl 2-(1-(1H-benzo[d]imidazol-5-yl)-5-(2,4-dimethylcyclohex-3-enyl)-2-oxoimidazolidin-4-ylideneamino)propanoate], which IC50 (read-out: IC50) is on record?
A: 7.6 µM

Q: For `O=C(C/N=C1\NC(=S)N(c2ccc3[nH]cnc3c2)C1c1cc2ccccc2s1)N1CCSCC1` (stereo not shown) [Compound 207, 2-(5-(benzo[b]thiophen-2-yl)-1-(1H-benzo[d]imidazol-5-yl)-2-thioxoimidazolidin-4-ylideneamino)-1-thiomorpholinoethan-one], which IC50 (read-out: IC50) is on record?
A: 4 µM

Q: Which IC50 (read-out: IC50) does the source give for `O=C(C/N=C1/NC(=O)N(c2ccc3[nH]cnc3c2)C1c1ccc(Br)cc1)N1CCSCC1` (stereo not shown) [Compound 208, 1-(1H-Benzoimidazol-5-yl)-5-(4-bromo-phenyl)-4-2-oxo-2-thiomorpholin-4-yl-ethylimino-imidazolidin-2-one] here?
A: 4 µM

Q: `O=C1N/C(=N\CCCc2ccccc2)C(c2coc3ccccc3c2=O)N1c1ccc2[nH]cnc2c1` (stereo not shown) [Compound 209, 1-(1H-Benzoimidazol-5-yl)-5-(4-oxo-4H-chromen-3-yl)-4-3-phenyl-propylimino-imidazolidin-2-one] was tested. Which IC50 (read-out: IC50) did it give?
A: 1.3 µM

Q: With `S=C1N/C(=N\C2CCCC2)C(c2ccc(N3CCCC3)cc2)N1c1ccc2[nH]cnc2c1` (stereo not shown) [Compound 210, 1-(1H-Benzoimidazol-5-yl)-4-cyclopentylimino-5-(4-pyrrolidin-1-yl-phenyl)-imidazolidine-2-thione] as the compound, how does the IC50 (read-out: IC50) read?
A: 3.1 µM

Q: Which IC50 [1] does the source give for `O=C1N/C(=N\C2CCCC2)C(c2ccc(Cl)cc2)N1c1ccc2[nH]cnc2c1` (stereo not shown) [Compound 211, 1-(1H-Benzoimidazol-5-yl)-5-(4-chloro-phenyl)-4-cyclopentylimino-imidazolidin-2-one] here?
A: 0.0377 µM

Q: What about the IC50 (read-out: IC50) of the same compound?
A: 0.004 µM

Q: `O=C1N/C(=N\CCCN2CCOCC2)C(c2ccnc3ccccc23)N1c1ccc2[nH]cnc2c1` (stereo not shown) [Compound 212, 1-(1H-Benzoimidazol-5-yl)-4-3-morpholin-4-yl-propylimino-5-quinolin-4-yl-imidazolidin-2-one] was tested. Which IC50 (read-out: IC50) did it give?
A: 4.9 µM

Q: Which IC50 (read-out: IC50) does the source give for `Cc1ccc2occ(C3/C(=N/C4CCc5ccccc54)NC(=O)N3c3ccc4[nH]cnc4c3)c(=O)c2c1` (stereo not shown) [Compound 213, 1-(1H-Benzoimidazol-5-yl)-4-indan-1-ylimino-5-(6-methyl-4-oxo-4H-chromen-3-yl)-imidazolidin-2-one] here?
A: 0.004 µM

Q: How did the IC50 (read-out: IC50) turn out when `Oc1cccc(C2/C(=N/c3cc(Cl)ccc3Cl)NC(=S)N2c2ccc3[nH]cnc3c2)c1` (stereo not shown) [Compound 214, 1-(1H-Benzoimidazol-5-yl)-4-2,5-dichloro-phenylimino-5-(3-hydroxy-phenyl)-imidazolidine-2-thione] was run?
A: 7.6 µM

Q: With `O=C1CCCN1CCCN=C1NC(=O)N(c2ccc3[nH]cnc3c2)C1c1cccc2cccnc12` (stereo not shown) [Compound 215, 1-(1H-Benzoimidazol-5-yl)-4-3-(2-oxo-pyrrolidin-1-yl)-propylimino-5-quinolin-8-yl-imidazolidin-2-one] as the compound, how does the IC50 (read-out: IC50) read?
A: 6.7 µM

Q: Which IC50 (read-out: IC50) does the source give for `S=C1N/C(=N/Cn2nnc3ccccc32)C(c2ccc3c(c2)OCCO3)N1c1ccc2[nH]cnc2c1` (stereo not shown) [Compound 217, 1-(1H-Benzoimidazol-5-yl)-4-benzotriazol-1-ylmethylimino-5-(2,3-dihydro-benzo1,4dioxin-6-yl)-imidazolidine-2-thione] here?
A: 0.4 µM

Q: With `O=C1N/C(=N\C2CCc3ccccc32)C(c2ccc3[nH]ccc3c2)N1c1ccc2[nH]cnc2c1` (stereo not shown) [Compound 218, 1-(1H-Benzoimidazol-5-yl)-4-indan-1-ylimino-5-(1H-indol-5-yl)-imidazolidin-2-one] as the compound, how does the IC50 (read-out: IC50) read?
A: 0.004 µM

Q: For `Cc1ccc(C2/C(=N\CCc3c[nH]c4ccccc34)NC(=O)N2c2ccc3[nH]cnc3c2)c(C)c1` (stereo not shown) [Compound 219, 1-(1H-Benzoimidazol-5-yl)-5-(2,4-dimethyl-phenyl)-4-2-(1H-indol-3-yl)-ethylimino-imidazolidin-2-one], which IC50 (read-out: IC50) is on record?
A: 0.004 µM

Q: For `O=C1N/C(=N\C2CCCCC2)C(c2c(F)ccc(Cl)c2F)N1c1ccc2[nH]cnc2c1` (stereo not shown) [Compound 220, 1-(1H-Benzoimidazol-5-yl)-5-(3-chloro-2,6-difluoro-phenyl)-4-(cyclohexylimino)-imidazolidin-2-one], which IC50 [1] is on record?
A: 0.0984 µM

Q: What about the IC50 (read-out: IC50) of the same compound?
A: 0.004 µM

Q: For `O=C1N/C(=N/Cc2cccnc2)C(c2ccc3ccccc3c2)N1c1ccc2[nH]cnc2c1` (stereo not shown) [Compound 221, 1-(1H-Benzoimidazol-5-yl)-5-naphthalen-2-yl-4-pyridin-3-ylmethylimino-imidazolidin-2-one], which IC50 (read-out: IC50) is on record?
A: 6.7 µM

Q: Which IC50 (read-out: IC50) does the source give for `O=C(CN=C1NC(=O)N(c2ccc3[nH]cnc3c2)C1c1ccc2[nH]ccc2c1)N1CCC(O)C1` (stereo not shown) [Compound 222, 1-(1H-Benzoimidazol-5-yl)-4-2-(3-hydroxy-pyrrolidin-1-yl)-2-oxo-ethylimino-5-(1H-indol-5-yl)-imidazolidin-2-one] here?
A: 1.3 µM

Q: With `C/N=C1/NC(=O)N(c2ccc3[nH]cnc3c2)C1c1c[nH]c2ccc(Cl)cc12` (stereo not shown) [Compound 223, 1-(1H-Benzoimidazol-5-yl)-5-(5-chloro-1H-indol-3-yl)-4-methylimino-imidazolidin-2-one] as the compound, how does the IC50 (read-out: IC50) read?
A: 0.4 µM

Q: Which IC50 (read-out: IC50) does the source give for `O=C1N/C(=N/CCCc2ccccc2)C(c2ccc3[nH]ccc3c2)N1c1ccc2[nH]cnc2c1` (stereo not shown) [Compound 224, 1-(1H-Benzoimidazol-5-yl)-5-(1H-indol-5-yl)-4-3-phenyl-propylimino-imidazolidin-2-one] here?
A: 0.004 µM

Q: For `COc1ccc(C2C(=NCC(=O)N3CCSCC3)NC(=S)N2c2ccc3[nH]cnc3c2)c(F)c1` (stereo not shown) [Compound 225, 2-(1-(1H-Benzo[d]imidazol-5-yl)-5-(2-fluoro-4-methoxyphenyl)-2-thioxoimidazolidin-4-ylideneamino)-1-thiomorpholinoethanone], which IC50 (read-out: IC50) is on record?
A: 6.7 µM

Q: `O=C1N/C(=N/Cc2cccnc2)C(c2cc(F)cc(F)c2)N1c1ccc2[nH]cnc2c1` (stereo not shown) [Compound 227, 1-(1H-Benzoimidazol-5-yl)-5-(3,5-difluoro-phenyl)-4-pyridin-3-ylmethylimino-imidazolidin-2-one] was tested. Which IC50 (read-out: IC50) did it give?
A: 1.3 µM

Q: With `O=C1N/C(=N\C2CCCc3ccccc32)C(c2c(F)ccc(Cl)c2F)N1c1ccc2nc[nH]c2c1` (stereo not shown) [Compound 228, 1-(3H-Benzoimidazol-5-yl)-5-(3-chloro-2,6-difluoro-phenyl)-4-1,2,3,4-tetrahydro-naphthalen-1-ylimino-imidazolidin-2-one] as the compound, how does the IC50 (read-out: IC50) read?
A: 0.004 µM

Q: Which IC50 (read-out: IC50) does the source give for `OC(CN=C1NC(=S)N(c2ccc3[nH]cnc3c2)C1c1cc(F)cc(F)c1)c1ccccc1` (stereo not shown) [Compound 229, 1-(1H-Benzoimidazol-5-yl)-5-(3,5-difluoro-phenyl)-4-2-hydroxy-2-phenyl-ethylimino-imidazolidine-2-thione] here?
A: 8.5 µM

Q: How did the IC50 (read-out: IC50) turn out when `Cc1ccc2c(C3/C(=N\Cc4ccccc4)NC(=O)N3c3ccc4[nH]cnc4c3)c[nH]c2c1` (stereo not shown) [Compound 230, 1-(1H-Benzoimidazol-5-yl)-4-benzylimino-5-(6-methyl-1H-indol-3-yl)-imidazolidin-2-one] was run?
A: 0.004 µM

Q: Which IC50 (read-out: IC50) does the source give for `O=C1CCCN1CCCN=C1NC(=S)N(c2ccc3[nH]cnc3c2)C1c1ccc2nsnc2c1` (stereo not shown) [Compound 231, 1-{3-1-(1H-Benzoimidazol-5-yl)-5-benzo[c][1,2,5]thiadiazol-5-yl-2-thioxo-imidazolidin-(4Z)-ylideneamino-propyl}-pyrrolidin-2-one] here?
A: 4 µM

Q: How did the IC50 (read-out: IC50) turn out when `O=C1N/C(=N/CCCc2ccccc2)C(c2c[nH]c3cc(F)ccc23)N1c1ccc2[nH]cnc2c1` (stereo not shown) [Compound 232, 1-(1H-Benzoimidazol-5-yl)-5-(6-fluoro-1H-indol-3-yl)-4-3-phenyl-propylimino-imidazolidin-2-one] was run?
A: 2.2 µM

Q: For `O=C1N/C(=N/CCN2CCOCC2)C(c2ccc3ccccc3c2)N1c1ccc2[nH]cnc2c1` (stereo not shown) [Compound 233, 1-(1H-Benzoimidazol-5-yl)-4-2-morpholin-4-yl-ethylimino-5-naphthalen-2-yl-imidazolidin-2-one], which IC50 (read-out: IC50) is on record?
A: 2.2 µM

Q: How did the IC50 (read-out: IC50) turn out when `COC(=O)C(C)/N=C1\NC(=O)N(c2ccc3[nH]cnc3c2)C1c1ccccc1` (stereo not shown) [Compound 234, Methyl 2-(1-(1H-benzo[d]imidazol-5-yl)-2-oxo-5-phenylimidazolidin-4-ylideneamino)propanoate] was run?
A: 7.6 µM

Q: Which IC50 (read-out: IC50) does the source give for `O=C1N/C(=N\c2ccc3c(c2)OCCO3)C(c2ccc3c(c2)OCCO3)N1c1ccc2[nH]cnc2c1` (stereo not shown) [Compound 235, 1-(1H-Benzoimidazol-5-yl)-5-(2,3-dihydro-benzo1,4dioxin-6-yl)-4-2,3-dihydro-benzo1,4dioxin-6-ylimino-imidazolidin-2-one] here?
A: 0.004 µM

Q: For `O=C1N/C(=N\C2CCCc3ccccc32)C(c2cc(Br)cs2)N1c1ccc2nc[nH]c2c1` (stereo not shown) [Compound 236, 1-(3H-Benzoimidazol-5-yl)-5-(4-bromo-thiophen-2-yl)-4-1,2,3,4-tetrahydro-naphthalen-1-ylimino-imidazolidin-2-one], which IC50 (read-out: IC50) is on record?
A: 2.2 µM

Q: Which IC50 (read-out: IC50) does the source give for `Cc1ccc(C2/C(=N/c3c(Cl)cccc3Cl)NC(=S)N2c2ccc3nc[nH]c3c2)cc1` (stereo not shown) [Compound 237, 1-(3H-Benzoimidazol-5-yl)-4-2,6-dichloro-phenylimino-5-p-tolyl-imidazolidine-2-thione] here?
A: 7.6 µM

Q: For `O=C1N/C(=N\C2CCCCC2O)C(c2ccc3nsnc3c2)N1c1ccc2[nH]cnc2c1` (stereo not shown) [Compound 238], which IC50 (read-out: IC50) is on record?
A: 0.004 µM

Q: `Cc1ccc2occ(C3/C(=N/CCCc4ccccc4)NC(=O)N3c3ccc4[nH]cnc4c3)c(=O)c2c1` (stereo not shown) [Compound 239, 1-(1H-Benzoimidazol-5-yl)-5-(6-methyl-4-oxo-4H-chromen-3-yl)-4-(3-phenyl-propylimino)-imidazolidin-2-one] was tested. Which IC50 (read-out: IC50) did it give?
A: 0.4 µM

Q: With `S=C1N/C(=N\C(Cc2ccccc2)c2ccccc2)C(C2=CCCCC2)N1c1ccc2[nH]cnc2c1` (stereo not shown) [Compound 240, 1-(1H-Benzoimidazol-5-yl)-5-cyclohex-1-enyl-4-1,2-diphenyl-ethylimino-imidazolidine-2-thione] as the compound, how does the IC50 (read-out: IC50) read?
A: 8.5 µM

Q: How did the IC50 (read-out: IC50) turn out when `O=C1CCCN1CCC/N=C1/NC(=O)N(c2ccc3[nH]cnc3c2)C1c1cccc(Br)c1` (stereo not shown) [Compound 241, 1-(1H-Benzoimidazol-5-yl)-5-(3-bromo-phenyl)-4-3-(2-oxo-pyrrolidin-1-yl)-propylimino-imidazolidin-2-one] was run?
A: 0.004 µM
